For series [1], the system named is P. falciparum (Pf) 3D7 parasites. The series can be described thus: P. falciparum LDH viability assay. Format: cell-based. Conditions: Plasmodium falciparum, 3D7, 72 h, LDH activity at 72 h; mean and SD of 3 independent experiments. From the text:
This assay is a platform assay conducted at the Walter and Eliza Hall Institute and uses a protocol previously decsribed.[30, 31]

In series [2] the test system is P. falciparum Dd2 PfATP4^F156L strain. In words: 'compound 49' resistant parasite viability assay (LDH), Dd2 F156L. Format: cell-based. Conditions: Plasmodium falciparum, DD2, 72 h, read-out: Dd2^F156L EC50 (SD). How it is done:
(§1) These assays were performed according to a previously described protocol.[16] Briefly, P. falciparum Dd2 strains treated with compound were incubated for 72 h at 37 °C. After incubating for 72 h, plates were frozen at −80 °C and then thawed at room temperature for at least 2 h. LDH activity, a surrogate for parasite growth was measured by the addition of the Malstst reagent mix, followed by incubation for 30 min and absorbance read using a ClarioStar Microplate reader at 650 nm. Values were normalized to DMSO control as a percentage and EC50 and dose response curves generated using GraphPad Prism.

The test system of series [3] is P. falciparum Dd2 PfATP4^D425E strain. In words: 'compound 49' resistant parasite viability assay (LDH), Dd2 D425E. Format: cell-based. Conditions: Plasmodium falciparum, DD2, 72 h, read-out: Dd2^D425E EC50 (SD). How it is done:
as §1

The next series in a line: eLogD shake-flask method. The format is physicochemical. From the text:
Human liver microsome stability, rat hepatocyte stability, aqueous solubility and eLogD are platform assays conducted by TCG Lifesciences and undertaken using previously described protocols.[10]

The test system of series [4] is P. falciparum Dd2 PfATP4^G358S strain. In words: PfATP4 drug resistant parasite viability assay (LDH), Dd2 G358S. The format is cell-based. To be noted: for EC50: Plasmodium falciparum, DD2, 72 h, read-out: Dd2^G358S EC50 (SD). On the procedure:
as §1

The subject of the next series is P. falciparum CAM3.1. The series can be described thus: Multidrug-resistant parasite viability assay (SYBR green), CAM3.1. The format is cell-based. Conditions: Plasmodium falciparum, 72 h, read-out: multidrug resistant P. falciparum strains EC50 (SD) CAM3.1. On the procedure:
These assays were performed as previously described.[16] P. falciparum 3D7 parasites and resistant lines Dd2, W2mef, 7G8, and artemisinin‐resistant Cambodian isolate (Cam3.I (2539T)), and P. knowlesi YH1, were cultured in human O^+ erythrocytes (RBCs) (Australian Red Cross Blood Service), in RPMI‐HEPES culture medium (pH 7.4, 50 μg/mL hypoxanthine, 25 mM NaHCO3, 20 μg/mL gentamicin, 0.5 % Albumax II (GibcoBRL)) (Thermo Fisher Scientific) and maintained in an atmosphere of 1 % O2, 4 % CO2 and 95 % N2. Parasites were synchronised with 5 % (w/v) sorbitol (Sigma‐Aldrich) treatments for ring stages. Growth assays for measuring drug inhibition of in‐cycle, ring to schizont stage parasites have been described previously. Parasites were grown in 1 % haematocrit, at 1 % and 2 % parasitaemia for P. falciparum and P. knowlesi respectively. […] Parasitaemia was measured using a SYBR DNA staining assay on a fluorometer.[33] After the incubation period, supernatants were removed and well contents were resuspended in PBS.

From paper PMC11648822, “Lactam Truncation Yields a Dihydroquinazolinone Scaffold with Potent Antimalarial Activity that Targets PfATP4” (Chemmedchem, 2024) come the findings set out here.

Marks after values point to notes of the source that are not given here.

Take `CN1C(=O)c2ccc(Cl)cc2NC1(C)C(=O)Nc1cncc(Cl)c1` (stereo not shown) [Compound 14, 7‐Chloro‐N‐(5‐chloro‐3‐pyridyl)‐2,3‐dimethyl‐4‐oxo‐1H‐quinazoline‐2‐carboxamide]: the EC50 in series [1] was found to be 33 nM; in series [2], 89 nM; in series [3], 55 nM; in series [4], 61 nM; in the series on P. falciparum CAM3.1 it was 21 nM. Also, the eLogD in the series “eLogD shake-flask method” was 3.2^[d].
For `CN1C(=O)c2ccc(-n3cccn3)cc2NC1(C)C(=O)Nc1cncc(Cl)c1` (stereo not shown) [Compound 33, N‐(5‐Chloropyridin‐3‐yl)‐2,3‐dimethyl‐4‐oxo‐7‐(1H‐pyrazol‐1‐yl)‐1,2,3,4‐tetrahydroquinazoline‐2‐carboxamide], the EC50 in series [1] was 65 nM; in series [2] it was 125 nM; in series [3] it was 126 nM; in series [4] it was 537 nM; with P. falciparum CAM3.1, 60 nM. In the series “eLogD shake-flask method”, the eLogD is 3.2^[d]. The “fold less potent against PfATP4^G358S strain relative to the Dd2 parental line” value in series [4] (ratio of EC50s) turned out to be 7 fold.
As to `COc1cc(F)c2c(c1)NC(C)(C(=O)Nc1cncc(Cl)c1)N(C)C2=O` (stereo not shown) [Compound 36, N‐(5‐Chloropyridin‐3‐yl)‐5‐fluoro‐7‐methoxy‐2,3‐dimethyl‐4‐oxo‐1,2,3,4‐tetrahydroquinazoline‐2‐carboxamide], the EC50 in series [1] worked out at 21 nM; in series [2], 47 nM; in series [3], 43 nM; in series [4] it was 41 nM; in the series on P. falciparum CAM3.1, 14 nM. Further, in “eLogD shake-flask method”, the eLogD is 2.6^[d].
